Test results from ChEMBL document CHEMBL5143680, “Cytotoxic Bromine- and Iodine-Containing Cytochalasins Produced by the Mangrove Endophytic Fungus Phomopsis sp. QYM-13 Using the OSMAC Approach” (J Nat Prod, 2022).

How the values were obtained:
[1] = tested on: MDA-MB-435; assay: Cytotoxicity against human MDA-MB-435 cells measured after 72 hrs by MTT assay; format: functional, cell-based; conditions: MDA-MB-435, 72 h
[2] = tested on: MDA-MB-231; assay: Cytotoxicity against human MDA-MB-231 cells measured after 72 hrs by MTT assay; format: functional, cell-based; conditions: MDA-MB-231, 72 h
[3] = tested on: HepG2; assay: Cytotoxicity against human HepG2 cells measured after 72 hrs by MTT assay; format: functional, cell-based; conditions: HepG2, 72 h
[4] = tested on: A549; assay: Cytotoxicity against human A549 cells measured after 72 hrs by MTT assay; format: functional, cell-based; conditions: A549, 72 h
[5] = tested on: SNB-19; assay: Cytotoxicity against human SNB-19 cells measured after 72 hrs by MTT assay; format: functional, cell-based; conditions: SNB-19, 72 h
[6] = Cytotoxicity against African green monkey Vero cells measured after 72 hrs by MTT assay; format: toxicity, cell-based; conditions: African green monkey (Chlorocebus sabaeus)

C=C1[C@@H](C)[C@H]2[C@H](Cc3ccccc3)NC(=O)[C@]23[C@H](OC(C)=O)[C@@H]2O[C@H]2[C@](C)(O)C[C@@H](C)C/C=C/[C@H]3[C@@H]1O
IC50 [1]: 42 µM
IC50 [2]: > 50 µM
IC50 [3]: > 50 µM
IC50 [4]: > 50 µM
IC50 [5]: > 50 µM
IC50 at 72 h [6]: > 50 µM

CC(=O)O[C@@H]1/C=C/[C@](C)(O)C[C@@H](C)C/C=C/[C@H]2C=C(C)[C@@H](C)[C@H]3[C@H](Cc4ccccc4)NC(=O)[C@]321
IC50 [1]: 34 µM
IC50 [2]: > 50 µM
IC50 [3]: > 50 µM
IC50 [4]: > 50 µM
IC50 [5]: > 50 µM
IC50 at 72 h [6]: > 50 µM

C=C1/C=C/[C@@H](OC(C)=O)[C@@]23C(=O)N[C@@H](Cc4ccccc4)[C@@H]2[C@H](C)C(=C)[C@@H](O)[C@@H]3/C=C/C[C@H](C)C1
IC50 [1]: 11 µM
IC50 [2]: 35 µM
IC50 [3]: > 50 µM
IC50 [4]: > 50 µM
IC50 [5]: 16 µM
IC50 at 72 h [6]: 14 µM

CC1=C[C@@H]2/C=C/C[C@H](C)C[C@H](C)[C@@H]3O[C@H]3C(=O)[C@]23C(=O)N[C@@H](Cc2ccccc2)[C@@H]3[C@@H]1C
IC50 [1]: 44 µM
IC50 [2]: > 50 µM
IC50 [3]: > 50 µM
IC50 [4]: > 50 µM
IC50 [5]: > 50 µM
IC50 at 72 h [6]: > 50 µM

C=C1[C@@H](C)[C@H]2[C@H](Cc3ccccc3)NC(=O)[C@]23[C@H](OC(C)=O)/C=C/C(C)=C\[C@@H](C)C/C=C/[C@H]3[C@@H]1O
IC50 [1]: 12 µM
IC50 [2]: 45 µM
IC50 [3]: > 50 µM
IC50 [4]: > 50 µM
IC50 [5]: 42 µM
IC50 at 72 h [6]: 25 µM

CC1=C[C@@H]2/C=C/C[C@H](C)C[C@@](C)(O)/C=C/[C@@H](O)[C@]23C(=O)N[C@@H](Cc2ccccc2)[C@@H]3[C@@H]1C
IC50 [1]: 38 µM
IC50 [2]: > 50 µM
IC50 [3]: > 50 µM
IC50 [4]: 38 µM
IC50 [5]: > 50 µM
IC50 at 72 h [6]: 44 µM

C=C1[C@@H](C)[C@H]2[C@H](Cc3ccccc3)NC(=O)[C@@]23[C@@H]([C@@H]2[C@H](/C=C(/C)C[C@@H](C)C[C@H]2Br)[C@H]3OC(C)=O)[C@@H]1O
IC50 [1]: 7.4 µM
IC50 [2]: 44 µM
IC50 [3]: > 50 µM
IC50 [4]: > 50 µM
IC50 [5]: > 50 µM
IC50 at 72 h [6]: 18 µM

C=C1[C@@H](C)[C@H]2[C@H](Cc3ccccc3)NC(=O)[C@]23[C@H](O)/C=C/[C@](C)(O)C[C@@H](C)C/C=C/[C@H]3[C@@H]1O
IC50 [1]: 4.9 µM
IC50 [2]: 31 µM
IC50 [3]: > 50 µM
IC50 [4]: > 50 µM
IC50 [5]: 6.8 µM
IC50 at 72 h [6]: > 50 µM

C=C1[C@@H](C)[C@H]2[C@H](Cc3ccccc3)NC(=O)[C@@]23[C@H]2[C@@H]4[C@H](C(C)=C[C@@H](C)C[C@H]4O[C@H]12)[C@H]3OC(C)=O
IC50 [1]: 36 µM
IC50 [2]: > 50 µM
IC50 [3]: > 50 µM
IC50 [4]: > 50 µM
IC50 [5]: > 50 µM
IC50 at 72 h [6]: 34 µM

CC1=C[C@@H]2/C=C/C[C@H](C)C[C@@](C)(O)[C@@H]3O[C@H]3C(=O)[C@]23C(=O)N[C@@H](Cc2ccccc2)[C@@H]3[C@@H]1C
IC50 [1]: 32 µM
IC50 [2]: 11 µM
IC50 [3]: > 50 µM
IC50 [4]: 28 µM
IC50 [5]: > 50 µM
IC50 at 72 h [6]: 29 µM

CC(=O)O[C@@H]1/C=C/[C@](C)(O)C[C@@H](C)C/C=C/[C@H]2C=C(C(=O)O)[C@@H](C)[C@H]3[C@H](Cc4ccccc4)NC(=O)[C@]321
IC50 [1]: > 50 µM
IC50 [2]: > 50 µM
IC50 [3]: > 50 µM
IC50 [4]: > 50 µM
IC50 [5]: > 50 µM
IC50 at 72 h [6]: > 50 µM

C=C1[C@@H](C)[C@H]2[C@H](Cc3ccccc3)NC(=O)[C@@]23[C@H]2[C@@H]4[C@H](C(C)=C[C@@H](C)C[C@H]4O[C@H]12)[C@@H](I)[C@H]3O
IC50 [1]: > 50 µM
IC50 [2]: > 50 µM
IC50 [3]: > 50 µM
IC50 [4]: > 50 µM
IC50 [5]: > 50 µM
IC50 at 72 h [6]: 39 µM

CC(=O)O[C@@H]1/C=C/[C@](C)(O)C[C@@H](C)C/C=C/[C@H]2C=C(CO)[C@@H](C)[C@H]3[C@H](Cc4ccccc4)NC(=O)[C@]321
IC50 [1]: 8.2 µM
IC50 [2]: 42 µM
IC50 [3]: > 50 µM
IC50 [4]: 38 µM
IC50 [5]: 6.9 µM
IC50 at 72 h [6]: 22 µM

C=C1[C@@H](C)[C@H]2[C@H](Cc3ccccc3)NC(=O)[C@]23[C@H](OC(C)=O)/C=C/[C@](C)(O)C[C@@H](C)C/C=C/[C@H]3[C@@H]1O
IC50 [1]: 0.2 µM
IC50 [2]: 42 µM
IC50 [3]: > 50 µM
IC50 [4]: > 50 µM
IC50 [5]: 26 µM
IC50 at 72 h [6]: 40 µM

C[C@H]1C/C=C/[C@H]2C=C(CO)[C@@H](C)[C@H]3[C@H](Cc4ccccc4)NC(=O)[C@]32[C@H](O)/C=C/[C@](C)(O)C1
IC50 [1]: 25 µM
IC50 [2]: > 50 µM
IC50 [3]: > 50 µM
IC50 [4]: > 50 µM
IC50 [5]: > 50 µM
IC50 at 72 h [6]: > 50 µM

C=C1[C@@H](C)[C@H]2[C@H](Cc3ccccc3)NC(=O)[C@@]23[C@H]2[C@@H]4[C@H](C(C)=C[C@@H](C)C[C@H]4O[C@H]12)[C@H]3O
IC50 [1]: > 50 µM
IC50 [2]: > 50 µM
IC50 [3]: > 50 µM
IC50 [4]: > 50 µM
IC50 [5]: > 50 µM
IC50 at 72 h [6]: > 50 µM

C=C1[C@@H](C)[C@H]2[C@H](Cc3ccccc3)NC(=O)[C@@]23[C@@H]([C@@H]2[C@H](/C=C(/C)C[C@@H](C)C[C@H]2I)[C@H]3OC(C)=O)[C@@H]1O
IC50 [1]: 47 µM
IC50 [2]: 43 µM
IC50 [3]: 47 µM
IC50 [4]: 33 µM
IC50 [5]: > 50 µM
IC50 at 72 h [6]: 29 µM

C=C1[C@@H](C)[C@H]2[C@H](Cc3ccccc3)NC(=O)[C@@]23[C@@H]([C@@H]2[C@H](/C=C(/C)C[C@@H](C)C[C@H]2O)[C@H]3OC(C)=O)[C@@H]1O
IC50 [1]: 45 µM
IC50 [2]: > 50 µM
IC50 [3]: > 50 µM
IC50 [4]: > 50 µM
IC50 [5]: > 50 µM
IC50 at 72 h [6]: > 50 µM
